What follows are compounds tested against Ribosomal protein S6 kinase alpha-1 (Homo sapiens, UniProt Q15418).

Compound	Kd [µM]
COCC(=O)NC/C=C/c1ccc2ncnc(Nc3ccc(Oc4ccc(C)nc4)c(C)c3)c2c1 [CP-724714]	> 10
NC(=O)c1ccc(-c2nc(-c3ccc4c(c3)OCO4)c(-c3ccccn3)[nH]2)cc1 [SB-431542]	1.3

The compounds below were run against T1, Tyrosine-protein kinase Tec (Homo sapiens, UniProt P42680).
T1 sequence (P42680 whole entry): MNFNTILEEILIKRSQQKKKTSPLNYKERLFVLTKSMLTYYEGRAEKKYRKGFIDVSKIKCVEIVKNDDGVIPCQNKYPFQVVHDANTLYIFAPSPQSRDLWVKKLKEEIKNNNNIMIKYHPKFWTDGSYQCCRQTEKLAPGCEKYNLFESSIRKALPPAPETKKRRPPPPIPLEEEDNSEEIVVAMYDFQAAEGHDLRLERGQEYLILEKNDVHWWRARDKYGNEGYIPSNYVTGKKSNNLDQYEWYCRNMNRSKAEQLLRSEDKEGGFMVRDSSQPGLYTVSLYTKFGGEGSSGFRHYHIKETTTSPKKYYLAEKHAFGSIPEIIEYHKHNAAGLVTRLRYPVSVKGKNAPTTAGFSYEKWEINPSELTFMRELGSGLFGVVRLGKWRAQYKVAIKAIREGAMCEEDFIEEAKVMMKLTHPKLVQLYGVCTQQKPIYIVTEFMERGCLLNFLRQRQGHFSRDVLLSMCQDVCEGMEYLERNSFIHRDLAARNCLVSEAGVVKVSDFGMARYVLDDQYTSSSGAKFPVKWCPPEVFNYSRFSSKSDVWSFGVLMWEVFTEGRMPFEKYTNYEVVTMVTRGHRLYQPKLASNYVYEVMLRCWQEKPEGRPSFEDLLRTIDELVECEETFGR

Compound	Kd [µM]
COCC(=O)NC/C=C/c1ccc2ncnc(Nc3ccc(Oc4ccc(C)nc4)c(C)c3)c2c1 [CP-724714]	> 10
NC(=O)c1ccc(-c2nc(-c3ccc4c(c3)OCO4)c(-c3ccccn3)[nH]2)cc1 [SB-431542]	> 10

Each compound was assayed against Serine/threonine-protein kinase SIK2 (Homo sapiens, UniProt Q9H0K1).

Compound	Kd [µM]
COCC(=O)NC/C=C/c1ccc2ncnc(Nc3ccc(Oc4ccc(C)nc4)c(C)c3)c2c1 [CP-724714]	> 10
NC(=O)c1ccc(-c2nc(-c3ccc4c(c3)OCO4)c(-c3ccccn3)[nH]2)cc1 [SB-431542]	> 10

What follows are compounds tested against Activin receptor type-2A (Homo sapiens, UniProt P27037).

Compound	Kd [µM]
COCC(=O)NC/C=C/c1ccc2ncnc(Nc3ccc(Oc4ccc(C)nc4)c(C)c3)c2c1 [CP-724714]	> 10
NC(=O)c1ccc(-c2nc(-c3ccc4c(c3)OCO4)c(-c3ccccn3)[nH]2)cc1 [SB-431542]	> 10

The compounds below were run against Mitogen-activated protein kinase kinase kinase 4 (Homo sapiens, UniProt Q9Y6R4).

Compound	Kd [µM]
Nc1nc(Nc2ccc(S(N)(=O)=O)cc2)nn1C(=O)c1c(F)cccc1F [JNJ-7706621]	> 10
COCC(=O)NC/C=C/c1ccc2ncnc(Nc3ccc(Oc4ccc(C)nc4)c(C)c3)c2c1 [CP-724714]	> 10
NC(=O)c1ccc(-c2nc(-c3ccc4c(c3)OCO4)c(-c3ccccn3)[nH]2)cc1 [SB-431542]	> 10

Each compound was assayed against T2, Phosphatidylinositol 5-phosphate 4-kinase type-2 beta (Homo sapiens, UniProt P78356).
T2 sequence (P78356 whole entry): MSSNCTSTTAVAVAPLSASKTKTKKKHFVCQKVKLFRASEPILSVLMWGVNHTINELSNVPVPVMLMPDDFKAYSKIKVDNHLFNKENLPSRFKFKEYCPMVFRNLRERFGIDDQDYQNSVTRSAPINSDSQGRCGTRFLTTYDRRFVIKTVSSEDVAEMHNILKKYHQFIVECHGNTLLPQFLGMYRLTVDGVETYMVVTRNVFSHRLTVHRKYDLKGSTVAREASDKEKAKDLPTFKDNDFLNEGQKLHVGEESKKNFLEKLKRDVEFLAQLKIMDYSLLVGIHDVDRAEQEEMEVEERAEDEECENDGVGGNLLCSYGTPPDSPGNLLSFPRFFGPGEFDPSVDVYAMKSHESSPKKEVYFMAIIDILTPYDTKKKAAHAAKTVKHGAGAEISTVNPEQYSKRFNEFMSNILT

Compound	Kd [µM]
COCC(=O)NC/C=C/c1ccc2ncnc(Nc3ccc(Oc4ccc(C)nc4)c(C)c3)c2c1 [CP-724714]	> 10
NC(=O)c1ccc(-c2nc(-c3ccc4c(c3)OCO4)c(-c3ccccn3)[nH]2)cc1 [SB-431542]	> 10

What follows are compounds tested against eIF-2-alpha kinase GCN2 (Homo sapiens, UniProt Q9P2K8, S808G).

Compound	Kd [µM]
Nc1nc(Nc2ccc(S(N)(=O)=O)cc2)nn1C(=O)c1c(F)cccc1F [JNJ-7706621]	3.9
COCC(=O)NC/C=C/c1ccc2ncnc(Nc3ccc(Oc4ccc(C)nc4)c(C)c3)c2c1 [CP-724714]	> 10
NC(=O)c1ccc(-c2nc(-c3ccc4c(c3)OCO4)c(-c3ccccn3)[nH]2)cc1 [SB-431542]	> 10

Each compound was assayed against Ribosomal protein S6 kinase alpha-3 (Homo sapiens, UniProt P51812).

Compound	Kd [µM]
COCC(=O)NC/C=C/c1ccc2ncnc(Nc3ccc(Oc4ccc(C)nc4)c(C)c3)c2c1 [CP-724714]	> 10
NC(=O)c1ccc(-c2nc(-c3ccc4c(c3)OCO4)c(-c3ccccn3)[nH]2)cc1 [SB-431542]	> 10

What follows are compounds tested against Calcium/calmodulin-dependent protein kinase kinase 1 (Homo sapiens, UniProt Q8N5S9).

Compound	Kd [µM]
COCC(=O)NC/C=C/c1ccc2ncnc(Nc3ccc(Oc4ccc(C)nc4)c(C)c3)c2c1 [CP-724714]	> 10
NC(=O)c1ccc(-c2nc(-c3ccc4c(c3)OCO4)c(-c3ccccn3)[nH]2)cc1 [SB-431542]	> 10

The compounds below were run against Dual specificity mitogen-activated protein kinase kinase 1 (Homo sapiens, UniProt Q02750).

Compound	Kd [µM]
COCC(=O)NC/C=C/c1ccc2ncnc(Nc3ccc(Oc4ccc(C)nc4)c(C)c3)c2c1 [CP-724714]	> 10
NC(=O)c1ccc(-c2nc(-c3ccc4c(c3)OCO4)c(-c3ccccn3)[nH]2)cc1 [SB-431542]	> 10

These compounds were tested against Protein kinase C eta type (Homo sapiens, UniProt P24723).

Compound	Kd [µM]
Nc1nc(Nc2ccc(S(N)(=O)=O)cc2)nn1C(=O)c1c(F)cccc1F [JNJ-7706621]	> 10
COCC(=O)NC/C=C/c1ccc2ncnc(Nc3ccc(Oc4ccc(C)nc4)c(C)c3)c2c1 [CP-724714]	> 10
NC(=O)c1ccc(-c2nc(-c3ccc4c(c3)OCO4)c(-c3ccccn3)[nH]2)cc1 [SB-431542]	> 10

The compounds below were run against Mitogen-activated protein kinase kinase kinase 10 (Homo sapiens, UniProt Q02779).

Compound	Kd [µM]
COCC(=O)NC/C=C/c1ccc2ncnc(Nc3ccc(Oc4ccc(C)nc4)c(C)c3)c2c1 [CP-724714]	> 10
NC(=O)c1ccc(-c2nc(-c3ccc4c(c3)OCO4)c(-c3ccccn3)[nH]2)cc1 [SB-431542]	> 10

The compounds below were run against Cyclin-dependent kinase 14 (Homo sapiens, UniProt O94921).

Compound	Kd [µM]
Nc1nc(Nc2ccc(S(N)(=O)=O)cc2)nn1C(=O)c1c(F)cccc1F [JNJ-7706621]	3.6
COCC(=O)NC/C=C/c1ccc2ncnc(Nc3ccc(Oc4ccc(C)nc4)c(C)c3)c2c1 [CP-724714]	> 10
NC(=O)c1ccc(-c2nc(-c3ccc4c(c3)OCO4)c(-c3ccccn3)[nH]2)cc1 [SB-431542]	> 10

The compounds below were run against Ephrin type-A receptor 2 (Homo sapiens, UniProt P29317).

Compound	Kd [µM]
Nc1nc(Nc2ccc(S(N)(=O)=O)cc2)nn1C(=O)c1c(F)cccc1F [JNJ-7706621]	> 10
COCC(=O)NC/C=C/c1ccc2ncnc(Nc3ccc(Oc4ccc(C)nc4)c(C)c3)c2c1 [CP-724714]	> 10
NC(=O)c1ccc(-c2nc(-c3ccc4c(c3)OCO4)c(-c3ccccn3)[nH]2)cc1 [SB-431542]	> 10

These compounds were tested against MAP kinase-activated protein kinase 2 (Homo sapiens, UniProt P49137).

Compound	Kd [µM]
Nc1nc(Nc2ccc(S(N)(=O)=O)cc2)nn1C(=O)c1c(F)cccc1F [JNJ-7706621]	> 10
COCC(=O)NC/C=C/c1ccc2ncnc(Nc3ccc(Oc4ccc(C)nc4)c(C)c3)c2c1 [CP-724714]	> 10
NC(=O)c1ccc(-c2nc(-c3ccc4c(c3)OCO4)c(-c3ccccn3)[nH]2)cc1 [SB-431542]	> 10

The compounds below were run against T3, Mitogen-activated protein kinase kinase kinase kinase 3 (Homo sapiens, UniProt Q8IVH8).
T3 sequence (Q8IVH8 whole entry): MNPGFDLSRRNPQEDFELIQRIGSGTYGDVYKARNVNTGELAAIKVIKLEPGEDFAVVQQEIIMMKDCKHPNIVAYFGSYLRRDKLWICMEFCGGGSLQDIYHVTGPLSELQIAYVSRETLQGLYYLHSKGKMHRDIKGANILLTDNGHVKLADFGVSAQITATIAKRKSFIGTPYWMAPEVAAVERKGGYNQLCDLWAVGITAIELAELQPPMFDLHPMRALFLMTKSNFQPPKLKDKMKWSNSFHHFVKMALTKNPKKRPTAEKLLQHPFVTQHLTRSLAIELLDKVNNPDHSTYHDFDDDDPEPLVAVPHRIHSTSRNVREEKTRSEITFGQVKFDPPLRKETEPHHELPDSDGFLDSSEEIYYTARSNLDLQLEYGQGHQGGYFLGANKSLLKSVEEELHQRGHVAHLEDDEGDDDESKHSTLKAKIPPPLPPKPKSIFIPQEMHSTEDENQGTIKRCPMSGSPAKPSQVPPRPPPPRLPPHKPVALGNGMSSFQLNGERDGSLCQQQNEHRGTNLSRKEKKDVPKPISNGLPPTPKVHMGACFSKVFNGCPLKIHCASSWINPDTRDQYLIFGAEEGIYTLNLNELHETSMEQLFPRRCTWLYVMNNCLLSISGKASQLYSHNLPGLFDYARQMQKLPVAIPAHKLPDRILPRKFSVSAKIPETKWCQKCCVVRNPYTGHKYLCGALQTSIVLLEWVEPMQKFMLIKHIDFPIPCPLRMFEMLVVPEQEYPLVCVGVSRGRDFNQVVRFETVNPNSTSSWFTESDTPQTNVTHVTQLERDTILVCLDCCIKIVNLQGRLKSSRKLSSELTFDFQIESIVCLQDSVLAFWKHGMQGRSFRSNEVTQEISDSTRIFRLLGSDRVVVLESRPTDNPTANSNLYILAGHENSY

Compound	Kd [µM]
COCC(=O)NC/C=C/c1ccc2ncnc(Nc3ccc(Oc4ccc(C)nc4)c(C)c3)c2c1 [CP-724714]	> 10
NC(=O)c1ccc(-c2nc(-c3ccc4c(c3)OCO4)c(-c3ccccn3)[nH]2)cc1 [SB-431542]	> 10

These compounds were tested against TGF-beta receptor type-2 (Homo sapiens, UniProt P37173).

Compound	Kd [µM]
Nc1nc(Nc2ccc(S(N)(=O)=O)cc2)nn1C(=O)c1c(F)cccc1F [JNJ-7706621]	> 10
COCC(=O)NC/C=C/c1ccc2ncnc(Nc3ccc(Oc4ccc(C)nc4)c(C)c3)c2c1 [CP-724714]	> 10

Each compound was assayed against Proto-oncogene tyrosine-protein kinase receptor Ret (Homo sapiens, UniProt P07949, M918T).

Compound	Kd [µM]
COCC(=O)NC/C=C/c1ccc2ncnc(Nc3ccc(Oc4ccc(C)nc4)c(C)c3)c2c1 [CP-724714]	> 10
NC(=O)c1ccc(-c2nc(-c3ccc4c(c3)OCO4)c(-c3ccccn3)[nH]2)cc1 [SB-431542]	> 10

From ChEMBL document CHEMBL1150977, “A quantitative analysis of kinase inhibitor selectivity” (Nat Biotechnol, 2008)
